21 molecules from patent US8273774B2, “Phenoxypyridinylamide compounds” (AstraZeneca AB, priority 2008, dated 2012) can be followed below.

SMILES strings stand for the structures.

Chain of recombinant Human Phosphodiesterase B2 (PDE4B2) (Q07343 1-564 isoform Q07343-2): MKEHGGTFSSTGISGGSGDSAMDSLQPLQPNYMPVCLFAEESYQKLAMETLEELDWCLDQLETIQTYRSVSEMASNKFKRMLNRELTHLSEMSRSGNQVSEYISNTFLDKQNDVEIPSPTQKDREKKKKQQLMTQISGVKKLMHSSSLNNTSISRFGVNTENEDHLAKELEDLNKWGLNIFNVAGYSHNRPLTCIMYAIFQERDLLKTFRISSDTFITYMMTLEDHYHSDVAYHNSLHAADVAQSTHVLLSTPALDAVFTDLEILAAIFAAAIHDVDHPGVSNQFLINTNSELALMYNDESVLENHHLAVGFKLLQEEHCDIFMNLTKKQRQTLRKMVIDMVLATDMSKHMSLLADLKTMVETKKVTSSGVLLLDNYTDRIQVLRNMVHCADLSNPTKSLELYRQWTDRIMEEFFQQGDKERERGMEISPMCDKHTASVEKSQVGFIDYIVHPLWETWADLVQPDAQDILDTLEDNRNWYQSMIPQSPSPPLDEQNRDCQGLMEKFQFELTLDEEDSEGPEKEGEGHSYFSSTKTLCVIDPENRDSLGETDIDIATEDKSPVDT

This assay deals with recombinant Human Phosphodiesterase B2 (PDE4B2) (Homo sapiens, UniProt Q07343). Briefly: Human Phosphodiesterase B2 Radiometric Assay. The assay is classed as biochemical. Particulars: 0.1 μg/mL recombinant PDE4B2; preincubated at 30 C for 30 min; [3H]cyclic AMP 8 nM, stopped after 20 min; yttrium silicate SPA beads; read-out: PDE4B2 pIC50 (converted). As for the experimental part:
Human Phosphodiesterase B2 Radiometric Assay
The assay uses recombinant Human Phosphodiesterase B2 (PDE4B2) produced in house (PrAZL0163), stored at −20° C. This assay is based on the observation that 5′AMP, the product of the reaction catalysed by PDE4, binds preferentially to yttrium silicate SPA beads (Amersham Biosciences, UK) compared to the substrate, cAMP. Compounds at the appropriate concentration were preincubated at 30 C for 30 min with an assay buffer containing 50 mM HEPES (pH 7.5), 8.3 mM MgCl2, 1.7 mM EGTA, 0.01% (w/v) Brij®35 and 0.1 μg/mL recombinant PDE4B2. The reaction was started by the addition of [3H]cyclic AMP to give a final concentration of 8 nM, and was stopped 20 min after the addition of the substrate by the addition of yttrium silicate SPA beads containing 18 mM Zn SO4. Bound […] was measured using a Topcount NXT (Packard Bioscience, UK). pIC50 values (presented in Table 2) were determined using Xlfit3 curve fitting, using model 205.
For the molecule `Cc1nc(C(=O)N[C@H]2CC[C@@H](NC(=O)c3cc(F)cnc3Oc3cccc(-c4ccc(CCN5CCCN(C)CC5)cc4)c3)CC2)cs1` [Example 87, N-((1s,4s)-4-(5-fluoro-2-(4′-(2-(4-methyl-1,4-diazepan-1-yl)ethyl)biphenyl-3-yloxy)nicotinamido)cyclohexyl)-2-methylthiazole-4-carboxamide], the IC50 is 0.0251 nM.

Take `Cn1ccc(C(=O)N[C@H]2CC[C@@H](NC(=O)c3cc(F)cnc3Oc3cccc(-c4ccc(CN5CCSCC5)cc4CN4CCOCC4)c3)CC2)n1` [Example 199, 5-fluoro-N-((1s,4s)-4-(1-methyl-1H-pyrazole-3-carboxamido)cyclo-hexyl)-2-(2′-(morpholinomethyl)-4′-(thiomorpholinomethyl)biphenyl-3-yloxy)nicotinamide]: the IC50 is 0.02 nM. For `CC(C)c1nc(C(=O)N[C@H]2CC[C@@H](NC(=O)c3cc(F)cnc3Oc3cccc(-c4ccc(CN5C[C@@H](C)N[C@@H](C)C5)cc4CN4CCOCC4)c3)CC2)cs1` [Example 190, N-((1s,4s)-4-(2-(4′-(((3S,5R)-3,5-dimethylpiperazin-1-yl)methyl)-2′-(morpholinomethyl)biphenyl-3-yloxy)-5-fluoronicotinamido)cyclohexyl)-2-isopropylthiazole-4-carboxamide] the value was 0.0398 nM. For `CN(C)Cc1cc(O)ccc1-c1cccc(Oc2ncc(F)cc2C(=O)N[C@H]2CC[C@@H](NC(=O)c3csc(C(C)(C)C)n3)CC2)c1` [Example 43, 2-tert-butyl-N-((1s,4s)-4-(2-(2′-((dimethylamino)methyl)-4′-hydroxybiphenyl-3-yloxy)-5-fluoronicotinamido)cyclohexyl)thiazole-4-carboxamide] the value was 0.126 nM; for `Cc1cc(C)n2ncc(C(=O)N[C@H]3CC[C@@H](NC(=O)c4cc(F)cnc4Oc4cccc(-c5ccc(CN6CCN(CC(=O)NC(C)C)CC6)cc5CN5CCOCC5)c4)CC3)c2n1` [Example 178, N-((1s,4s)-4-(5-Fluoro-2-(4′-((4-(2-(isopropylamino)-2-oxoethyl)piperazin-1-yl)methyl)-2′-(morpholinomethyl)biphenyl-3-yloxy)nicotinamido)cyclohexyl)-5,7-dimethylpyrazolo[1,5-a]pyrimidine-3-carboxamide], 0.0398 nM; for `O=C(N[C@H]1CC[C@@H](NC(=O)c2cc(F)cnc2Oc2cccc(-c3ccc(CCN4CCNCC4)cc3)c2)CC1)c1cnc2ccccc2n1` [Example 186, N-((1s,4s)-4-(5-Fluoro-2-(4′-(2-(piperazin-1-yl)ethyl)biphenyl-3-yloxy)nicotinamido)cyclohexyl)quinoxaline-2-carboxamide], 0.0398 nM. For `C[C@@H]1CN(CCc2ccc(-c3cccc(Oc4ncc(F)cc4C(=O)N[C@H]4CC[C@@H](NC(=O)c5ccn(C)n5)CC4)c3)cc2)C[C@H](C)N1` [Example 163, 2-(4′-(2-((3S,5R)-3,5-Dimethylpiperazin-1-yl)ethyl)biphenyl-3-yloxy)-5-fluoro-N-((1s,4s)-4-(1-methyl-1H-pyrazole-3-carboxamido)cyclohexyl)nicotinamide] the value was 0.0398 nM; for `Cc1ccc(O)c(CN[C@H]2CC[C@@H](NC(=O)c3cc(F)cnc3Oc3cccc(-c4ccc(O)cc4CN4CCOCC4)c3)CC2)c1` [Example 7, 5-fluoro-2-(4′-hydroxy-2′-(morpholinomethyl)biphenyl-3-yloxy)-N-((1s,4s)-4-(2-hydroxy-5-methylbenzylamino)cyclohexyl)nicotinamide], 6.31 nM. In the case of `Cc1cccc2nc(C(=O)N[C@H]3CC[C@@H](NC(=O)c4cc(F)cnc4Oc4cccc(-c5ccc(CN6C[C@@H](C)N[C@@H](C)C6)cc5CN5CCOC[C@@H]5C)c4)CC3)cn12` [Example 175, N-((1s,4s)-4-(2-(4′-(((3S,5R)-3,5-Dimethylpiperazin-1-yl)methyl)-2′-(((S)-3-methylmorpholino)methyl)biphenyl-3-yloxy)-5-fluoronicotinamido)cyclohexyl)-5-methylimidazo[1,2-a]pyridine-2-carboxamide], the IC50 was 0.02 nM.

In the case of `Cc1ccc(O)c(C(=O)N[C@H]2CC[C@@H](NC(=O)c3cc(F)cnc3Oc3cccc(-c4ccc(O)cc4CN4CCCOCC4)c3)CC2)c1` [Example 16, 2-(2′-((1,4-oxazepan-4-yl)methyl)-4′-hydroxybiphenyl-3-yloxy)-5-fluoro-N-((1s,4s)-4-(2-hydroxy-5-methylbenzamido)cyclohexyl)nicotinamide], the IC50 was 0.0316 nM. For `Cc1nc(C(=O)N[C@H]2CC[C@@H](NC(=O)c3cc(F)cnc3Oc3cccc(-c4ccc(O)cc4CN(C)CC(=O)N(C)C)c3)CC2)cs1` [Example 30, N-((1s,4s)-4-(2-(2′-(((2-(dimethylamino)-2-oxoethyl)(methyl)amino)methyl)-4′-hydroxybiphenyl-3-yloxy)-5-fluoronicotinamido)cyclohexyl)-2-methylthiazole-4-carboxamide] the value was 0.0398 nM. For `C[C@@H]1CN(CCCc2ccc(-c3cccc(Oc4ncc(F)cc4C(=O)N[C@H]4CC[C@@H](NC(=O)c5csc(CO)n5)CC4)c3)cc2)C[C@H](C)N1` [Example 149, N-((1s,4s)-4-(2-(4′-(3-((3S,5R)-3,5-dimethylpiperazin-1-yl)propyl)biphenyl-3-yloxy)-5-fluoronicotinamido)cyclohexyl)-2-(hydroxymethyl)thiazole-4-carboxamide] the value was 0.0316 nM; for `Cc1cc(C)n2nc(C(=O)N[C@H]3CC[C@@H](NC(=O)c4cc(F)cnc4Oc4cccc(-c5ccc(CN6CCCN(CCO)CC6)cc5CN5CCOC[C@@H]5C)c4)CC3)cc2n1` [Example 179, N-((1s,4s)-4-(5-Fluoro-2-(4′-((4-(2-hydroxyethyl)-1,4-diazepan-1-yl)methyl)-2′-(((S)-3-methylmorpholino)methyl)biphenyl-3-yloxy)nicotinamido)cyclohexyl)-5,7-dimethylpyrazolo[1,5-a]pyrimidine-2-carboxamide], 0.0501 nM; for `Cc1csc(C(=O)N[C@H]2CC[C@@H](NC(=O)c3cc(F)cnc3Oc3cccc(-c4ccc(CN5C[C@@H](C)N[C@@H](C)C5)cc4CN4CCOC[C@@H]4C)c3)CC2)n1` [Example 194, N-((1s,4s)-4-(2-(4′-(((3S,5R)-3,5-dimethylpiperazin-1-yl)methyl)-2′-(((S)-3-methylmorpholino)methyl)biphenyl-3-yloxy)-5-fluoronicotinamido)cyclohexyl)-4-methylthiazole-2-carboxamide], 0.0316 nM. For `Cn1nc(C(=O)N[C@H]2CC[C@@H](NC(=O)c3cc(F)cnc3Oc3cccc(-c4ccc(CCN5CCNCC5)cc4)c3)CC2)cc1C(F)(F)F` [Example 176, 5-Fluoro-N-((1s,4s)-4-(1-methyl-5-(trifluoromethyl)-1H-pyrazole-3-carboxamido)cyclohexyl)-2-(4′-(2-(piperazin-1-yl)ethyl)biphenyl-3-yloxy)nicotinamide] the value was 0.0501 nM. In the case of `Cc1nc(C(=O)N[C@H]2CC[C@@H](NC(=O)c3cc(F)cnc3Oc3cccc(-c4ccc(O)cc4CN4C[C@@H](C)O[C@@H](C)C4)c3)CC2)cs1` [Example 24, N-((1s,4s)-4-(2-(2′-(((2S,6R)-2,6-dimethylmorpholino)methyl)-4′-hydroxybiphenyl-3-yloxy)-5-fluoronicotinamido)cyclohexyl)-2-methylthiazole-4-carboxamide], the IC50 is 0.1 nM.

With `Cc1ncsc1C(=O)N[C@H]1CC[C@@H](NC(=O)c2cc(F)cnc2Oc2cccc(-c3ccc(O)cc3CN3CCOCC3)c2)CC1` [Example 33, N-((1s,4s)-4-(5-fluoro-2-(4′-hydroxy-2′-(morpholinomethyl)biphenyl-3-yloxy)nicotinamido)cyclohexyl)-4-methylthiazole-5-carboxamide], the IC50 is 0.631 nM. For `O=C(N[C@H]1CC[C@@H](NC(=O)c2cc(F)cnc2Oc2cccc(-c3ccc(CCCNCCCO)cc3)c2)CC1)c1cc2n(n1)CCCC2` [Example 128, N-((1s,4s)-4-(5-fluoro-2-(4′-(3-(3-hydroxypropylamino)propyl)biphenyl-3-yloxy)nicotinamido)cyclohexyl)-4,5,6,7-tetrahydropyrazolo[1,5-a]pyridine-2-carboxamide] the value was 0.126 nM; for `Cc1nc(C(=O)N[C@H]2CC[C@@H](NC(=O)c3cc(F)cnc3Oc3cccc(-c4ccc(CCCN5CCCN(C)CC5)cc4)c3)CC2)cs1` [Example 134, N-((1s,4s)-4-(5-fluoro-2-(4′-(3-(4-methyl-1,4-diazepan-1-yl)propyl)biphenyl-3-yloxy)nicotinamido)cyclohexyl)-2-methylthiazole-4-carboxamide], 0.0631 nM. For `C[C@@H]1CN(Cc2cccc(-c3cccc(Oc4ncc(F)cc4C(=O)N[C@H]4CC[C@@H](NC(=O)c5cc6ccccn6n5)CC4)c3)c2)C[C@H](C)N1` [Example 151, N-((1s,4s)-4-(2-(3′-(((3S,5R)-3,5-dimethylpiperazin-1-yl)methyl)biphenyl-3-yloxy)-5-fluoronicotinamido)cyclohexyl)pyrazolo[1,5-a]pyridine-2-carboxamide] the value was 0.0631 nM; for `Cn1ccc(C(=O)N[C@H]2CC[C@@H](NC(=O)c3cc(F)cnc3Oc3cccc(-c4ccc(O)cc4CN4CCOCC4)c3)CC2)n1` [Example 49, 5-fluoro-2-(4′-hydroxy-2′-(morpholinomethyl)biphenyl-3-yloxy)-N-((1s,4s)-4-(1-methyl-1H-pyrazole-3-carboxamido)cyclohexyl)nicotinamide], 0.0251 nM.
